{
  "source": "patent US8148337B2",
  "about": "“Vaginal compositions for treating pelvic tissue infections and traumas” (priority 2003, dated 2012)",
  "origin": "cited, not measured here",
  "key": {"[1]": {"conditions": "administered rectally"}, "chlamydial infection": {"test_system": "chlamydial infection", "conditions": "orally as a single dose"}},
  "data": [
    {"smiles": "CC[C@H]1OC(=O)[C@H](C)[C@@H](O[C@H]2C[C@@](C)(OC)[C@@H](O)[C@H](C)O2)[C@H](C)[C@@H](O[C@@H]2O[C@H](C)C[C@H](N(C)C)[C@H]2O)[C@](C)(O)C[C@@H](C)CN(C)[C@H](C)[C@@H](O)[C@]1(C)O", "note": "[azithromycin]", "values": [
      {"measurement": "bioavailability", "setting": "[1]", "result": "highly variable and low"},
      {"measurement": "women who experience side effects", "setting": "chlamydial infection", "result": 25, "unit": "%"}
    ]}
  ]
}
